Columns and labels:
[1] = molecular target: T1, Multidrug efflux pump subunit AcrB (Escherichia coli (strain K12)) (UniProt P31224); test: Inhibition of AcrB in multidrug-resistant Escherichia coli BW25113 assessed as potentiation of levofloxacin-induced antibacterial activity by measuring fold change in levofloxacin MIC at 128 ug/ml by checkerboard titration method relative to levofloxacin MIC; settings: dose 128.0 µg/ml
T1 sequence (whole entry): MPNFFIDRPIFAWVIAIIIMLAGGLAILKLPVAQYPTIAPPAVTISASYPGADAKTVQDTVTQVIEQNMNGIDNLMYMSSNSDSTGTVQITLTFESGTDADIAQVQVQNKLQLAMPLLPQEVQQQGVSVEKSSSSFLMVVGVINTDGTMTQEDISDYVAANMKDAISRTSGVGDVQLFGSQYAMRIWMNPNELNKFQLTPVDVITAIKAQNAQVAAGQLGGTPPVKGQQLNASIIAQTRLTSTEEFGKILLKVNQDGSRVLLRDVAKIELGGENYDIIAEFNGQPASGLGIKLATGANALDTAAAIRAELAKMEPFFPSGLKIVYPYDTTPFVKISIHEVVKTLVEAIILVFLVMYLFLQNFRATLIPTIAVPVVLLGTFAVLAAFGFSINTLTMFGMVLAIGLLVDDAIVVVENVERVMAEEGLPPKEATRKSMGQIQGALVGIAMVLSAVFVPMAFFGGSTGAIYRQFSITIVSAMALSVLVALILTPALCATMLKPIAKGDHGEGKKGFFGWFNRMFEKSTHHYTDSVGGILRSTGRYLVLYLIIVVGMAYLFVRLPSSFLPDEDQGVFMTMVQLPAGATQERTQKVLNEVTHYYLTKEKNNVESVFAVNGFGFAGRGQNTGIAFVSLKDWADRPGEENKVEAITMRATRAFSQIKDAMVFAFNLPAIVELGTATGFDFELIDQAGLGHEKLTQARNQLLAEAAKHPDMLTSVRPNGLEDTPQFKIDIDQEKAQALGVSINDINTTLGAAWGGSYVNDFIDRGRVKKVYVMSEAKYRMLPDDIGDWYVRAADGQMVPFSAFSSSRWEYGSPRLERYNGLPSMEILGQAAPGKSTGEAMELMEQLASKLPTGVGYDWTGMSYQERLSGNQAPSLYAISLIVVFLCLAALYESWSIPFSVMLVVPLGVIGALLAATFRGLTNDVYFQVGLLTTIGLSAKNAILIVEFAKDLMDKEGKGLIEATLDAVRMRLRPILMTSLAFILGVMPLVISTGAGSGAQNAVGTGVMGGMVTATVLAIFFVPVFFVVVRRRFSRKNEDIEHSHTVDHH

[2] = molecular target: T1, Multidrug efflux pump subunit AcrB (Escherichia coli (strain K12)); test: Inhibition of AcrB in multidrug-resistant Escherichia coli BW25113 assessed as potentiation of erythromycin-induced antibacterial activity by measuring fold change in erythromycin MIC at 128 ug/ml by checkerboard titration method relative to erythromycin MIC; settings: dose 128.0 µg/ml
[3] = molecular target: T1, Multidrug efflux pump subunit AcrB (Escherichia coli (strain K12)); test: Inhibition of AcrB in multidrug-resistant Escherichia coli BW25113 assessed as potentiation of tetraphenylphosphonium-induced antibacterial activity by measuring fold change in tetraphenylphosphonium MIC at 64 ug/ml by checkerboard titration method relative to tetraphenylphosphonium MIC; settings: dose 64.0 µg/ml

**Q.** `Cc1ccc(COc2cccc3c4c(c(-c5nnco5)cc23)CCC(C)(C)O4)cc1` was tested. Which fold change (FC) [1] did it give?
**A.** < 16

**Q.** And the fold change (FC) [2]?
**A.** < 16

**Q.** How did the fold change (FC) [3] turn out when `CC1(C)CC(=O)c2ccc(OCC(=O)Nc3ccc(C#N)c(C(F)(F)F)c3)cc2O1` was run?
**A.** 4

Reference: ChEMBL document CHEMBL4732114, “Design and structural optimization of novel 2H-benzo[h]chromene derivatives that target AcrB and reverse bacterial multidrug resistance” (Eur J Med Chem, 2021)
